Results reported in publication PMC6853154 (Clinical and Translational Science, 2019).
“Also recorded” adds a separate entry of the source. Read-outs that look alike come from different tables or passages of the source.

How the values were obtained:
[1] = type: in vivo, human; conditions: for AUC(0-inf) / Cmax / Tmax / half-life: human, plasma, po; for AUC0–∞, mean percent change / Cmax, mean percent change / t1/2, mean percent change: multiple doses vs single dose of efavirenz
[2] = molecular target: T1, CYP1A2 (Homo sapiens, UniProt P05177); conditions: human liver microsomal preparations and/or expressed enzymes; cited from earlier work
T1 sequence (P05177 1-516): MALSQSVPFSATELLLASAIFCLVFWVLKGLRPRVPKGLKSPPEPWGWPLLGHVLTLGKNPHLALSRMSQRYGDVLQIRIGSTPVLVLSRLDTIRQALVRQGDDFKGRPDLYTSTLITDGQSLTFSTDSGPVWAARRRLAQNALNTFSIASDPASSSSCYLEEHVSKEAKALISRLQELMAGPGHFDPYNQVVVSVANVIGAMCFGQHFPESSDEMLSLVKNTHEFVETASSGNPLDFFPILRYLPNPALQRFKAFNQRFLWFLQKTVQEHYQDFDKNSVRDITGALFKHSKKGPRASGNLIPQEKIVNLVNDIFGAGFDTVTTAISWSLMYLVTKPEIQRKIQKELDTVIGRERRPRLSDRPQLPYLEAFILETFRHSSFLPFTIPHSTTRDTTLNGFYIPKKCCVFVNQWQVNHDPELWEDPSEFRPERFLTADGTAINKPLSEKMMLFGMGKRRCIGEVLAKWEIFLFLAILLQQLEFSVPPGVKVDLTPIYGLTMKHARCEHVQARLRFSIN

[3] = HIV/tuberculosis‐coinfected patients, cited from earlier work
[4] = test system: CYP2C9; conditions: at therapeutically relevant concentrations; cited from earlier work
[5] = molecular target: T1, CYP1A2; experiment: In vivo CYP1A2 activity from plasma paraxanthine/caffeine metabolic ratio
[6] = cited from earlier work
[7] = molecular target: xanthine oxidase (XO) (Homo sapiens, UniProt P47989); experiment: In vivo xanthine oxidase activity from urinary caffeine metabolic ratio; conditions: for XO activity, urinary MR (1 MU)/(1 MX + 1 MU): mean ± SD
Chain of xanthine oxidase (XO) (P47989 whole entry): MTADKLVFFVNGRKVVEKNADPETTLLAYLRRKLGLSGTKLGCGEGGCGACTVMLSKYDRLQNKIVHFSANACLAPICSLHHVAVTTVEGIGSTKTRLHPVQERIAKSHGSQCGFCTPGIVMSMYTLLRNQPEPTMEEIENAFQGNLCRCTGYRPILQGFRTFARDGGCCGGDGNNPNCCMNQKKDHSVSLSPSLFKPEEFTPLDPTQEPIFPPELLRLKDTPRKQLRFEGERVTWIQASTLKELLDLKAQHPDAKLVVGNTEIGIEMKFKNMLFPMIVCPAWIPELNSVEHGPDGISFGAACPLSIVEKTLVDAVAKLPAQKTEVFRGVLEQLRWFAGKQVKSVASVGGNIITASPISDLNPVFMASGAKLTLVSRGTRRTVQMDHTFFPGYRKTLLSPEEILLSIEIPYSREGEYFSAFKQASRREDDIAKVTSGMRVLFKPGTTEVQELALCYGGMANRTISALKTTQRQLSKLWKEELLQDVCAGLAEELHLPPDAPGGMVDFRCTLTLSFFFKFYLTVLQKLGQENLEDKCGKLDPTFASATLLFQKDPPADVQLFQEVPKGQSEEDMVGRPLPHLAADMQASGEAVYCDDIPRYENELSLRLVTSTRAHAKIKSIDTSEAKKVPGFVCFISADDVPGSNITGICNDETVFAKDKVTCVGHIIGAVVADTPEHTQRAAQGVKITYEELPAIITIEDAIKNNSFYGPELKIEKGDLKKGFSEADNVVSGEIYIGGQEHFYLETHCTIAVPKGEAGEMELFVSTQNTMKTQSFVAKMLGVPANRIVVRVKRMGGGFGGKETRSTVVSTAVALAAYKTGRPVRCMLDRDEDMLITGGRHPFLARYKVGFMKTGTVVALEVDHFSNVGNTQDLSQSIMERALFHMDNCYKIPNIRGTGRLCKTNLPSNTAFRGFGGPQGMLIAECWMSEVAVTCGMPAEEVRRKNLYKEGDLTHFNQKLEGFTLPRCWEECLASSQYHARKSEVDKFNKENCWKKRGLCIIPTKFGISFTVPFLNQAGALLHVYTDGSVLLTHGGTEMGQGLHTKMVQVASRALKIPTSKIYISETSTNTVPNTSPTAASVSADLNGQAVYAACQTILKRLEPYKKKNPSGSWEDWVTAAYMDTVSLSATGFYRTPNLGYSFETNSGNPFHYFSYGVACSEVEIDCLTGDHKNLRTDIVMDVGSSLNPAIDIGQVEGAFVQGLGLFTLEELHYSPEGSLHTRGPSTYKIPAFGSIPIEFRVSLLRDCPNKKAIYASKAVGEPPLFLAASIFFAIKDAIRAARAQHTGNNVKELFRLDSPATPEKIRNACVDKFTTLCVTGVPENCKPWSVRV

[8] = test system: CYP2A6; conditions: human liver microsomal preparations and/or expressed enzymes; cited from earlier work
[9] = molecular target: T1, CYP1A2; experiment: In vivo CYP1A2 activity from urinary caffeine metabolic ratio
[10] = test system: CYP2A6; experiment: In vivo CYP2A6 activity from urinary caffeine metabolic ratio; set-up: species or system human
[11] = Efavirenz plasma exposure in healthy volunteers, also by CYP2B6 genotype; conditions: following a single dose and multiple doses of efavirenz
[12] = molecular target: T2, N‐acetyltransferase 2 (NAT2) (Homo sapiens, UniProt P11245); experiment: In vivo NAT2 activity from urinary caffeine metabolic ratio; conditions: for NAT2 activity, urinary MR AFMU/(AFMU + 1 MU + 1 MX): mean ± SD
T2 sequence (P11245 1-290): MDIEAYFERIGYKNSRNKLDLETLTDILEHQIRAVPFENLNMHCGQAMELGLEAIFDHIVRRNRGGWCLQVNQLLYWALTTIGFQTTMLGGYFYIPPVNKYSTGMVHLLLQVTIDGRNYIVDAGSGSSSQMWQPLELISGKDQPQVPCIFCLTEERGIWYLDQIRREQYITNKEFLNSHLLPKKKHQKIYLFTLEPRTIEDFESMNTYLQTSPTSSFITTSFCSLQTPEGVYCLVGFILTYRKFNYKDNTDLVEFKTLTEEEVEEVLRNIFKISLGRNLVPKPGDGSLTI

[13] = test system: CYP2C19; conditions: at therapeutically relevant concentrations; cited from earlier work
[14] = test system: CYP2C8; conditions: at therapeutically relevant concentrations; cited from earlier work
[15] = test system: CYP2B6; conditions: at therapeutically relevant concentrations; cited from earlier work
[16] = test system: CYP1A2; conditions: coadministration of potent CYP1A2 inhibitor; cited from earlier work
[17] = after multiple doses of efavirenz
[18] = chronic efavirenz relative to single‐dose phase
[19] = multiple doses vs single dose of efavirenz
[20] = multiple doses of efavirenz (600 mg/day, 17 days)
[21] = multiple doses relative to single‐dose efavirenz

Compound: Cn1c(=O)[nH]c2ncn(C)c2c1=O [Paraxanthine, 1,7‐dimethylxanthine]
- AUC(0-inf) [1]: 10800 ± 6100 ng·h/mL
- Cmax [1]: 504 ± 236 ng/mL
- Tmax [1]: 7 h
- half-life [1]: 10.8 ± 9.21 h
- AUC(0-inf) ([1]; 150 mg): 8600 ± 5800 ng·h/mL
- Cmax ([1]; 150 mg): 358 ± 208 ng/mL
- Tmax ([1]; 150 mg): 7 h
- half-life ([1]; 150 mg): 12.2 ± 7.88 h
- AUC0–∞, mean percent change [1]: −8.6%
- Cmax, mean percent change [1]: −24.5%
- t1/2, mean percent change [1]: 26.3%

Compound: Cn1c(=O)c2c(ncn2C)n(C)c1=O [Caffeine]
- Caffeine AUC0‐∞ by CYP2B6 genotype, in words ([1]; both efavirenz treatment groups, compared with *1/*1 genotype): significantly higher for *6/*6 genotype
- AUC(0-inf) [1]: 17300 ± 11600 ng·h/mL
- Cmax [1]: 1820 ng/mL
- Tmax [1]: 1 h
- half-life [1]: 7.61 ± 8.29 h
- AUC(0-inf) ([1]; 150 mg): 22700 ± 18400 ng·h/mL
- Cmax ([1]; 150 mg): 1900 ng/mL
- Tmax ([1]; 150 mg): 1 h
- half-life ([1]; 150 mg): 8.87 ± 4.98 h
- AUC0–∞, mean percent change [1]: 46.2%
- Cmax, mean percent change [1]: 17.4%
- t1/2, mean percent change [1]: 32.5%

Compound: O=C1Nc2ccc(Cl)cc2[C@@](C#CC2CC2)(C(F)(F)F)O1 [efavirenz]
- Inhibition/inactivation of CYP1A2 activity in vitro, in words [2]: does not inhibit/inactivate; also recorded: neither a reversible inhibitor nor a mechanism‐based (i.e., time‐dependent) inactivator
- Reduction of model‐predicted exposure of isoniazid by efavirenz ([3]; fast acetylators): 29%
- Effect of efavirenz on model‐predicted exposure of isoniazid, in words ([3]; slow acetylators): no effect
- Inhibition of CYP2C9 in vitro, in words [4]: directly inhibits
- Correlation (r s) of CYP1A2 activity with efavirenz AUC0–24 h [5, 17]: −0.61
- Correlation (r s) of percent change in CYP1A2 activity with efavirenz AUC0–24 h [5, 17]: −0.41
- Decrease of CYP1A2 activity (plasma MRs) [5, 18]: 38%
- Interindividual range of percent change in CYP1A2 activity (plasma MRs) ([5]; chronic efavirenz relative to single‐dose phase, 58 subjects): −78.2% to 31.7
- CYP1A2 activity, plasma MR, mean percent change [5, 19]: −38.1%
- Correlation (r s) of CYP1A2 activity with efavirenz AUC0–∞ ([5]; single 600 mg dose of efavirenz): −0.32
- Efavirenz exposure (AUC0–24), fold higher in CYP2B6*6/*6 vs CYP2B6*1/*1 ([6]; multiple doses of efavirenz): 2.5 fold
- Efavirenz exposure (AUC0–24), fold higher in CYP2B6*6/*6 vs CYP2B6*1/*6 ([6]; multiple doses of efavirenz): 2 fold
- Efavirenz exposure (AUC0–∞), fold higher in CYP2B6*6/*6 vs CYP2B6*1/*1 ([6]; single dose of efavirenz): 2.1 fold
- Efavirenz exposure (AUC0–∞), fold higher in CYP2B6*6/*6 vs CYP2B6*1/*6 ([6]; single dose of efavirenz): 1.8 fold
- XO activity, urinary MR (1 MU)/(1 MX + 1 MU) [7, 20]: 0.37 ± 0.16
- Effect on XO activity (urinary MR), in words [7, 21]: unaffected; also recorded: not significantly altered
- XO activity, urinary MR, mean percent change [7, 19]: 1.1%
- XO activity, urinary MR (1 MU)/(1 MX + 1 MU) ([7]; single 600 mg efavirenz dose): 0.37 ± 0.16
- Inhibition/inactivation of CYP2A6 activity in vitro, in words [8]: does not inhibit/inactivate
- Decrease of CYP1A2 activity measured by urinary MRs [9, 18]: 28.9%
- Interindividual range of percent change in urine MR (CYP1A2) [9, 18]: −65.1% to 43.2
- CYP1A2 activity, urinary MR, mean percent change [9, 19]: −28.9%
- Increase of CYP2A6 activity [10, 21]: 85%
- CYP2A6 activity, urinary MR, mean percent change [10, 19]: 85.5%
- Between‐subject differences in efavirenz exposure [11]: Approximately sevenfold
- NAT2 activity, urinary MR AFMU/(AFMU + 1 MU + 1 MX) [12, 20]: 0.32 ± 0.22
- Effect on NAT2 activity (urinary MR), in words [12, 21]: unaffected; also recorded: not significantly altered
- NAT2 activity, urinary MR, mean percent change [12, 19]: 4.5%
- NAT2 activity, urinary MR AFMU/(AFMU + 1 MU + 1 MX) ([12]; single 600 mg efavirenz dose): 0.31 ± 0.21
- Inhibition of CYP2C19 in vitro, in words [13]: directly inhibits
- Inhibition of CYP2C8 in vitro, in words [14]: directly inhibits
- Inhibition of CYP2B6 in vitro, in words [15]: directly inhibits

Compound: COCCCC/C(=N\OCCN)c1ccc(C(F)(F)F)cc1 [fluvoxamine]
- Increase of plasma exposure of tizanidine [16]: up to 30 fold

Compound: O=C1Nc2c(O)cc(Cl)cc2[C@@](C#CC2CC2)(C(F)(F)F)O1 [8‐hydroxyefavirenz]
- Inhibition/inactivation of CYP1A2 activity in vitro, in words [2]: no effect
